The values below come from ChEMBL document CHEMBL1909550, “Designing 2-aminoimidazole alkaloids analogs with anti-biofilm activities: structure-activities relationships of polysubstituted triazoles” (Bioorg Med Chem Lett, 2011).

pEC50: −log10 of the molar value.

In data set [1] the test system is Pseudoalteromonas sp. D41. Nature of the data set: Antibiofilm activity against Pseudoalteromonas sp. D41 assessed as inhibition of bacterial adhesion after 15 hrs by fluorescence assay. The class given is functional. The following applies: Pseudoalteromonas sp. D41, 15 h.
For data set [2], the system named is Paracoccus sp. Nature of the data set: Antibiofilm activity against Paracoccus sp. 4M6 assessed as inhibition of bacterial adhesion after 15 hrs by fluorescence assay. The class given is functional. The following applies: Paracoccus sp. (in: a-proteobacteria), 4M6, 15 h.
The test system of data set [3] is Paracoccus sp. In words: Antibiofilm activity against Paracoccus sp. 4M6 assessed as inhibition of bacterial adhesion at 200 uM after 15 hrs by fluorescence assay. The class given is functional. The following applies: Paracoccus sp. (in: a-proteobacteria), 4M6, 15 h; values are per cent of control.
The test system of data set [4] is Pseudoalteromonas sp. D41. Nature of the data set: Antibiofilm activity against Pseudoalteromonas sp. D41 assessed as inhibition of bacterial adhesion at 200 uM after 15 hrs by fluorescence assay relative to control. The class given is functional. The following applies: Pseudoalteromonas sp. D41, 15 h.
Data set [5] can be described thus: Antibacterial activity against Pseudoalteromonas sp. D41 assessed as growth inhibition at 100 uM up to 6 hrs by viability assay. The following applies: pseudoalteromonas sp. d41, 6 h.
Data set [6] can be described thus: Antibacterial activity against Paracoccus sp. 4M6 assessed as growth inhibition at 100 uM up to 6 hrs by viability assay.
The subject of data set [7] is Pseudomonas aeruginosa. Nature of the data set: Antibiofilm activity against Pseudomonas aeruginosa assessed as modulation of biofilm formation. The class given is functional, organism-based.
Data set [8] relates to Pseudomonas aeruginosa. Nature of the data set: Antibiofilm activity against Pseudomonas aeruginosa assessed as dispersion of bacterial biofilm. The class given is functional, organism-based.
Data set [9] in a line: Antibacterial activity against Paracoccus sp. 4M6 assessed as growth inhibition at 10 uM up to 6 hrs by viability assay.
A short description of data set [10]: Antibacterial activity against Pseudoalteromonas sp. D41 assessed as growth inhibition at 10 uM up to 6 hrs by viability assay. The following applies: pseudoalteromonas sp. d41, 6 h.

Usually pEC50 stands for the negative decadic logarithm of the EC50, by convention in mol/L. As for `COc1ccc(-c2cn(Cc3cccc(OC)c3)nn2)cc1`, the pEC50 in data set [1] and in data set [2] was below 3.70 in each case.
For orientation: inhibition means how much of the control response was suppressed. For `COc1cccc(Cn2nncc2-c2ccccc2)c1`, the pEC50 in data set [1] and in data set [2] was below 3.70 in each case. Moreover, the response, % of control at 200 µM in data set [3] was 142%. In [4], the inhibition at 200 µM worked out at 50.5%.
With `COc1ccc(Cn2nncc2-c2ccccc2)cc1`, the pEC50 in data set [1] and in [2] was below 3.70 each time. The response, % of control at 200 µM in data set [3] turned out to be 127%. Also, in [4], the inhibition at 200 µM turned out to be 70.9%.
Take `COc1cccc(Cn2nncc2Cc2ccccc2)c1`: the pEC50 in data set [1] and in [2] was below 3.70 each time. Also, in [3], the response, % of control at 200 µM was 149%. Further, in data set [4], the inhibition at 200 µM is 58.5%.
For `COc1ccc(Cn2nncc2Cc2ccccc2)cc1`, the pEC50 in data set [1] is below 3.70; in [2], 3.70. Further, in data set [4], the inhibition at 200 µM is 55.5%.
For `COc1cccc(Cn2nncc2CCc2ccccc2)c1`, the negative-log EC50 (pEC50) in data set [1] and in data set [2] was below 3.70 throughout. Also, the response, % of control at 200 µM in [3] turned out to be 65.5%. In addition, the inhibition at 200 µM in [4] turned out to be 86.4%.
For the compound `COc1ccc(Cn2nncc2CCc2ccccc2)cc1`, the pEC50 in data set [1] and in data set [2] was below 3.70 in each case. For the same compound, the response, % of control at 200 µM in data set [3] amounted to 97.8%. For the same compound, the inhibition at 200 µM in [4] is 78.5%.
For the compound `COc1ccc(Cn2cc(-c3cc(OC)cc(OC)c3)nn2)cc1`, the results for the pEC50 in [1] and in data set [2] were 4.21 and 3.70, respectively. Further, in [5], the “growth inhibition (GI)” value is given as “Non-toxic”.
Turning to `Oc1ccc(-c2cnnn2Cc2cccc(O)c2)cc1`, the pEC50 in data set [1] and in data set [2] was below 3.70 throughout.
Take `COc1ccc(-c2cnnn2Cc2cccc(OC)c2)cc1`: the pEC50 in data set [1] is 3.77; in data set [2] it was below 3.70.
On to `COc1cccc(Cn2nncc2-c2cc(OC)cc(OC)c2)c1`, for which the pEC50 in data set [1] is 4.31; in data set [2], below 3.70. Moreover, in [5], the “growth inhibition (GI)” value was “Non-toxic”.
As to `COc1ccc(Cn2nncc2-c2ccc(OC)cc2)cc1`, the negative logarithm of the EC50 (pEC50) in data set [1] and in data set [2] was below 3.70 each time.
In the case of `COc1ccc(Cn2nncc2-c2cc(OC)cc(OC)c2)cc1`, the pEC50 in data set [1] was 4.43; in data set [2], 4.04. The “growth inhibition (GI)” value in data set [6] and in data set [5] was “Non-toxic” in each case.
Turning to `COc1cccc(Cn2cc(-c3cc(OC)cc(OC)c3)nn2)c1`, the pEC50 is 4.46 in [1] and below 3.70 in data set [2]. The “growth inhibition (GI)” value in data set [5] is reported as “Non-toxic”.
`COc1ccc(Cn2cc(-c3ccc(OC)cc3)nn2)cc1`: the pEC50 in [1] and in [2] was below 3.70 each time.
For `Oc1cccc(Cn2nncc2-c2cc(O)cc(O)c2)c1`, the pEC50 in [1] and in [2] was below 3.70 in each case.
Take `Oc1ccc(Cn2nncc2-c2ccc(O)cc2)cc1`: the pEC50 in data set [1] and in data set [2] was below 3.70 in each case.
As to `Oc1ccc(Cn2nncc2-c2cc(O)cc(O)c2)cc1`, the pEC50 in [1] and in data set [2] was below 3.70 each time.
As to `Oc1ccc(-c2cn(Cc3cccc(O)c3)nn2)cc1`, the pEC50 in data set [1] is 3.89; in [2], 4.39. Further, the “growth inhibition (GI)” value in data set [6] was “Non-toxic”.
For the compound `Oc1cccc(Cn2cc(-c3cc(O)cc(O)c3)nn2)c1`, the pEC50 in data set [1] and in [2] was below 3.70 in each case.
On to `Oc1ccc(Cn2cc(-c3ccc(O)cc3)nn2)cc1`, for which the pEC50 in data set [1] was below 3.70; in data set [2], 3.88.
In the case of `Oc1ccc(Cn2cc(-c3cc(O)cc(O)c3)nn2)cc1`, the pEC50 in data set [1] is below 3.70; in data set [2], 3.74.
For `COc1ccc(Cc2[nH]c(=N)n(C)c2Cc2ccc(O)cc2)cc1` [NAAMINE A], the pEC50 in data set [7] and in data set [8] was 3.36 in each case.
In the case of `CCn1cc(C(=O)O)c(=O)c2cc(F)c(N3CCNCC3)cc21` [NORFLOXACIN], the “growth inhibition (GI)” value in data set [9] and in [10] was “Toxic” throughout.
